These results are taken from patent US20110288116A1, “IAP INHIBITORS” (TETRALOGIC PHARMACEUITCAL CORPORATION, priority 2008, published 2011).

For this experiment, the target named is T1, cIAP-1 BIR-3 (Homo sapiens, UniProt Q13490).
T1 construct: "cIAP-1 BIR-3"
Nature of the experiment: Fluorescence polarization binding to cIAP-1 BIR-3 (competition with AbuRPF-K(5-Fam)-NH2). The settings on record: cells marked (cIAP-1): cIAP-1 BIR-3; reported as range class. On the procedure:
The binding affinities of the compounds are reported as a Kd value. Briefly, various concentrations of test peptides were mixed with 5 nM of the fluorescently labeled peptide (i.e., a mutated N-terminal Smac peptide—AbuRPF-K(5-Fam)-NH2) and 40 nM of the BIR3 for 15 min at RT in […] of 0.1M Potassium Phosphate buffer, pH 7.5 containing […] bovine g-globulin. Following incubation, the polarization values (mP) were measured on a Victor2V (available from PerkinElmer Life Sciences) using a 485 nm excitation filter and a 520 nm emission filter. The reported Kd values are supplied as ranges (A=<0.1 μM, B=0.1 μM to C=>1 μM to 10 μM, D=>10 μM) and, unless otherwise indicated, are the Kd for XIAP BIR-3.
(Polarisation of emitted light reports the rotation of a fluorescent probe.)

T1 sequence (Q13490 266-343 limits assumed): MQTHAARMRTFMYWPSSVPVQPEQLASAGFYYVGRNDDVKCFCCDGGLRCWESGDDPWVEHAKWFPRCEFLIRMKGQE

As usually defined, the Kd is the concentration at which binding is half-saturated. The low end stands for a tighter complex, the high end for a looser complex. In the case of `CN[C@@H](C)C(=O)N[C@H](C(=O)N1CC[C@H](O)[C@H]1Cc1c(Cl)[nH]c2cc(F)ccc12)[C@@H](C)OC` [CC′, N-{1-[2-(2-Chloro-6-fluoro-1H-indol-3-ylmethyl)-3-hydroxy-pyrrolidine-1-carbonyl]-2-methoxy-propyl}-2-methylamino-propionamide], the Kd was less than 100 nM. The compound `CCN[C@@H](C)C(=O)N[C@H](C(=O)N1CC[C@H](O)[C@H]1Cc1c[nH]c2ncccc12)C(C)C` [EE] gave a dissociation constant (Kd) of less than 100 nM. In turn, `CN[C@@H](C)C(=O)N[C@H](C(=O)N1C[C@@H](O)C[C@H]1C[C@@H]1CN(C(C)=O)c2ccccc21)C1CCCCC1` [TTT] registered a Kd of less than 100 nM. As for `CC[C@H](NC)C(=O)N[C@H](C(=O)N1CCC[C@H]1Cc1cn(C)c2ncccc12)C(C)(C)C` [V], the Kd was more than 100 nM. Next, AAAA: more than 100 nM. Next, `CC[C@H](NC)C(=O)N[C@H](C(=O)N1CC[C@@H](O)[C@H]1Cc1c[nH]c2ccccc12)C1CCCCC1` [KK′]: less than 100 nM; `CCN[C@@H](C)C(=O)N[C@H](C(=O)N1CC[C@@H](O)[C@H]1Cc1c[nH]c2ccccc12)[C@@H](C)OC` [GG′]: less than 100 nM. Next, `CC[C@H](NC)C(=O)N[C@H](C(=O)N1CC[C@@H](O)[C@H]1Cc1c[nH]c2ccccc12)C1CC1` [RR′]: less than 100 nM; `CCN[C@@H](C)C(=O)N[C@H](C(=O)N1CC[C@@H](O)[C@H]1Cc1c[nH]c2ccccc12)C(C)(C)C` [OO′]: less than 100 nM. Take `CN[C@H](C(=O)N[C@H](C(=O)N1CC[C@@H](O)[C@H]1Cc1c[nH]c2ccccc12)C(C)(C)C)C1CC1` [MM′]: the Kd is less than 100 nM.

Compound `CN[C@H](C(=O)N[C@H](C(=O)N1CC[C@@H](O)[C@H]1Cc1c[nH]c2ccccc12)C1CC1)C1CC1` [QQ′] yielded a dissociation constant (Kd) of more than 100 nM. Next, `CN[C@@H](C)C(=O)N[C@H](C(=O)N1CC[C@H](O)[C@H]1Cc1c(Cl)[nH]c2cc(F)ccc12)C(C)(C)C` [Y′]: less than 100 nM; `CCc1ccc2c(c1)[C@@H](C[C@@H]1C[C@H](O)CN1C(=O)[C@@H](NC(=O)[C@H](C)NC)[C@@H](C)OC)CN2C(C)=O` [DDDD]: less than 100 nM. To `CCN[C@@H](C)C(=O)N[C@H](C(=O)N1CC[C@@H](O)[C@H]1Cc1c[nH]c2ccccc12)C1CC1` [SS′] belongs more than 100 nM; to `CN[C@@H](C)C(=O)N[C@H](C(=O)N1CC[C@H](O)[C@H]1Cc1c(Cl)[nH]c2cc(F)ccc12)C1CCCCC1` [W′], less than 100 nM; to `CN[C@H](C(=O)N[C@H](C(=O)N1CC[C@@H](O)[C@H]1Cc1c[nH]c2ccccc12)C(C)C)C1CC1` [TT′], more than 100 nM.

The compound `CN[C@@H](C)C(=O)N[C@H](C(=O)N1CC[C@H](O)[C@H]1Cc1c[nH]c2ncccc12)C(C)C` [DD] gave a Kd of less than 100 nM. To `CN[C@@H](C)C(=O)N[C@H](C(=O)N1CC[C@@H](O)[C@H]1Cc1c[nH]c2ccccc12)C(C)C` [XX′] belongs less than 100 nM; to `CCN[C@@H](C)C(=O)N[C@H](C(=O)N1CCC[C@H]1Cc1cn(C)c2ncccc12)C(C)(C)C` [W], less than 100 nM. The compound `CCN[C@@H](C)C(=O)N[C@@H](COC)C(=O)N1CC[C@@H](O)[C@H]1Cc1c(-c2ccc(F)cc2)[nH]c2ccccc12` [FFF] came in with a Kd of more than 100 nM. Next, `CC[C@H](NC)C(=O)N[C@H](C(=O)N1CC[C@@H](O)[C@H]1Cc1c(-c2ccc(F)cc2)[nH]c2ccccc12)[C@@H](C)O` [DDD]: less than 100 nM. Turning to `CN[C@@H](C)C(=O)N[C@H](C(=O)N1CC[C@H](O)[C@H]1Cc1c[nH]c2ncccc12)[C@@H](C)OC` [BB], the dissociation constant (Kd) was less than 100 nM. Next, `CN[C@@H](C)C(=O)N[C@H](C(=O)N1CC[C@@H](O)[C@H]1Cc1c(-c2ccc(F)cc2)[nH]c2ccccc12)[C@@H](C)O` [EEE]: less than 100 nM. Next, `CCN[C@@H](C)C(=O)N[C@H](C(=O)N1CC[C@@H](O)[C@H]1Cc1c(-c2ccc(F)cc2)[nH]c2ccccc12)[C@@H](C)OC` [LLL]: less than 100 nM; EEEE: more than 100 nM.
